Measurements: patent publication US8815304B2, “Compositions and methods for promoting appetite suppression using alkali metals” (Ashberry International Limited, priority 2010, dated 2014)

Tests used:
Type in all cases: in vivo, human
[1] = Weight loss trials in one subject (first to fifth and further trials, Examples 4-9); conditions: for weight lost during the trial: two months (61 days)
Description: The therapeutic efficacy of a composition in accordance with the present invention has been tested herein.
These trials were not undertaken to lose weight as quickly as possible but rather they were undertaken with the recommendation by doctors to the subject(s) not to lose weight too quickly and to eat potassium rich foods, especially at night, instead of junk food.
As such, the aim of these trials was to have the subjects lose weight and stop the cravings for junk food with the aid of the compositions of this invention and use the enhanced energy and stimulation supplied from the compositions to change eating habits away from junk food thereby facilitating weight loss.
During a first trial, a subject was administered 300 mg of cesium chloride once per day in a glass of water every morning. The first trial lasted two months (61 days) and the subject (100 kg) lost ten kilograms during this time period, as follows:
In a second trial, the subject was administered 120 mg of lithium carbonate once per day with a glass of water every morning for two months (59 days). The subject reported after two weeks the stress of trying to diminish junk food intake was reduced.
In a third trial, the subject was administered 40 mg of lithium carbonate with a glass of water every morning for two months. The subject reported that the most difficult aspect was to stop the craving for junk food in the evening and the late afternoon.
In a fourth trial, the subject was administered 300 mg of rubidium chloride once per once day in a glass of water in the morning. This trial lasted two months (61 days), and the subject lost ten kilograms during this time period. The most difficult aspect reported was the urge to eat junk food for dinner and the cravings in the evening, which contributed to poor weight loss at the beginning of the trial (an option for people who cannot stop eating junk food at night would be to split the dosage and take half in the morning and half late in the afternoon or increase the dosage to 200 mg in the morning and 200 mg in the late afternoon).
In a fifth trial, the subject was administered 150 mg of rubidium chloride, 150 mg cesium chloride, and 40 mg of lithium carbonate once per day together in a glass of water in the morning. This trial lasted two months (61 days) and the subject lost ten kilograms during this time period. The most difficult aspect reported by the subject was the craving for junk food for dinner or late in the afternoon. This contributed to the little weight loss early in the study.
In further trials, the subject was administered lithium salts—lithium orotate, lithium aspartate, and lithium citrate (40 mg) with a glass of water in the morning. The subject reported similar cravings as noted above.

[2] = Blind trial with two subjects (rubidium chloride vs powdered sugar placebo), Example 10; conditions: rubidium chloride 300 mg once per day
Experimental: In a blind trial with two subjects, a subject (66 kg) was administered 300 mg of rubidium chloride once per day in a glass of water in the morning for two months (61 days). The second subject was a person (98 kg) who was administered a placebo of powdered sugar once per day in a glass of water in the morning during the same two months.
The most difficult aspect reported by the subject was to stop eating junk food for dinner and to stop the craving for junk food in the evening, which is believed to be the reason for little weight loss at the beginning of the trial (a proposed solution for people who cannot stop eating at night would be to split the dosage of the 300 mg of rubidium chloride and take half in the morning and half late in the afternoon).
The aim of this trial was to have the subject lose weight and stop the craving for junk food with the aid of the composition. The enhanced energy and stimulation supplied from the composition that was tested to determine if it prompted a change in eating habits away from junk food, thereby facilitated weight loss. Both subjects stated there was a higher craving for junk food for them in the afternoon and evening.
The trial lasted two months and the subject lost no weight and found the powdered sugar caused no stimulation, while the subject lost 6.5 kilograms during this time period, as follows: […]

[3] = Example 1: alkali metal composition in water taken daily by a 100 kg person for two months; conditions: 300 mg in water, each over another two-month period
Experimental: A 100 kg person was administered a pharmaceutical composition of the invention. Cesium chloride ([…]), rubidium chloride ([…]) and lithium aspartate (40 milligrams) together were dissolved in one glass of water and ingested in the morning daily over a two month period.

[4] = further trials, lithium salt 40 mg in the morning
[5] = further trials, lithium salt 40 mg in the morning, after two weeks
[6] = further trials, lithium salt 40 mg with a glass of water in the morning

O=C([O-])[O-].[Li+].[Li+] [lithium carbonate]
stress of trying to diminish junk food intake (subject report) ([1]; second trial, lithium carbonate 120 mg once per day, after two weeks): reduced
Weight ([1]; second trial, lithium carbonate 120 mg once per day, day 1-14): 100 kg
Weight ([1]; second trial, lithium carbonate 120 mg once per day, day 15-19): 99 kg
Weight ([1]; second trial, lithium carbonate 120 mg once per day, day 20-27): 98 kg
Weight ([1]; second trial, lithium carbonate 120 mg once per day, day 28-35): 97 kg
Weight ([1]; second trial, lithium carbonate 120 mg once per day, day 36-39): 96 kg
Weight ([1]; second trial, lithium carbonate 120 mg once per day, day 40-46): 95 kg
Weight ([1]; second trial, lithium carbonate 120 mg once per day, day 47-52): 94 kg
Weight ([1]; second trial, lithium carbonate 120 mg once per day, day 53-57): 93 kg
Weight ([1]; second trial, lithium carbonate 120 mg once per day, day 58-59): 92 kg
weight loss (in words) ([1]; second trial, lithium carbonate 120 mg once per day, two months (59 days)): Weight loss resulted
feeling of stimulation (subject report) ([1]; third trial, lithium carbonate 40 mg every morning): not the feeling of stimulation as in the first trial
stress of trying to reduce junk food intake (subject report) ([1]; third trial, lithium carbonate 40 mg every morning, after two weeks): reduced
Weight ([1]; third trial, lithium carbonate 40 mg every morning, day 1-15): 100 kg
Weight ([1]; third trial, lithium carbonate 40 mg every morning, day 16-25): 99 kg
Weight ([1]; third trial, lithium carbonate 40 mg every morning, day 26-34): 98 kg
Weight ([1]; third trial, lithium carbonate 40 mg every morning, day 35-41): 97 kg
Weight ([1]; third trial, lithium carbonate 40 mg every morning, day 42-48): 96 kg
Weight ([1]; third trial, lithium carbonate 40 mg every morning, day 49-53): 95 kg
Weight ([1]; third trial, lithium carbonate 40 mg every morning, day 54-57): 94 kg
Weight ([1]; third trial, lithium carbonate 40 mg every morning, day 58-60): 93 kg
Weight ([1]; third trial, lithium carbonate 40 mg every morning, day 61): 92 kg
weight loss (in words) ([1]; third trial, lithium carbonate 40 mg every morning, two months): Weight loss also resulted

[Cl-].[Rb+] [rubidium chloride]
weight lost during the trial ([2]; subject (66 kg), two months (61 days)): 6.5 kilograms
craving for junk food (subject report) ([2]; subject): less craving for junk food than normal even after the first day
energy and activity during the day (subject report) ([2]; subject): much more energy than before
stimulation from the medication (subject report) ([2]; subject): very, very strong
Weight ([2]; subject, day 1-5): 66 kg
Weight ([2]; subject, day 6-9): 65.5 kg
Weight ([2]; subject, day 10-12): 65 kg
Weight ([2]; subject, day 13-18): 64 kg
Weight ([2]; subject, day 19-28): 63 kg
Weight ([2]; subject, day 29-30): 64 kg
Weight ([2]; subject, day 31-32): 63.5 kg
Weight ([2]; subject, day 33-34): 63 kg
Weight ([2]; subject, day 35-43): 62 kg
Weight ([2]; subject, day 44-51): 61 kg
Weight ([2]; subject, day 52-55): 60.5 kg
Weight ([2]; subject, day 56-59): 60 kg
Weight ([2]; subject, day 60-61): 59.5 kg
effect of the individual alkali metals ingested separately, compared with the combination [3]: worked as well and with the same sensation
Weight ([1]; fourth trial, rubidium chloride 300 mg once per day, day 1-10): 102 kg
Weight ([1]; fourth trial, rubidium chloride 300 mg once per day, day 11-15): 101 kg
Weight ([1]; fourth trial, rubidium chloride 300 mg once per day, day 16-23): 100 kg
Weight ([1]; fourth trial, rubidium chloride 300 mg once per day, day 24-29): 99 kg
Weight ([1]; fourth trial, rubidium chloride 300 mg once per day, day 30-35): 98 kg
Weight ([1]; fourth trial, rubidium chloride 300 mg once per day, day 36-40): 97 kg
Weight ([1]; fourth trial, rubidium chloride 300 mg once per day, day 41-45): 96 kg
Weight ([1]; fourth trial, rubidium chloride 300 mg once per day, day 46-50): 95 kg
Weight ([1]; fourth trial, rubidium chloride 300 mg once per day, day 51-54): 94 kg
Weight ([1]; fourth trial, rubidium chloride 300 mg once per day, day 55-59): 93 kg
Weight ([1]; fourth trial, rubidium chloride 300 mg once per day, day 60-61): 92 kg
weight lost during the trial ([1]; fourth trial, rubidium chloride 300 mg once per day): ten

O=C([O-])CC(O)(CC(=O)[O-])C(=O)[O-].[Li+].[Li+].[Li+] [lithium citrate]
feeling of stimulation (subject report) [1, 4]: not the feeling of stimulation as in the first and fourth trials
stress of trying to diminish junk food intake (subject report) [1, 5]: decreased
weight loss (in words) [1, 6]: Weight loss was recorded

[Cl-].[Cs+] [cesium chloride]
effect of the individual alkali metals ingested separately, compared with the combination [3]: worked as well and with the same sensation
Weight ([1]; first trial, cesium chloride 300 mg once per day, day 1-9): 100 kg
Weight ([1]; first trial, cesium chloride 300 mg once per day, day 10-13): 99 kg
Weight ([1]; first trial, cesium chloride 300 mg once per day, day 14-15): 98 kg
Weight ([1]; first trial, cesium chloride 300 mg once per day, day 16-23): 97 kg
Weight ([1]; first trial, cesium chloride 300 mg once per day, day 24-34): 96 kg
Weight ([1]; first trial, cesium chloride 300 mg once per day, day 35-41): 95 kg
Weight ([1]; first trial, cesium chloride 300 mg once per day, day 42-47): 94 kg
Weight ([1]; first trial, cesium chloride 300 mg once per day, day 48-52): 93 kg
Weight ([1]; first trial, cesium chloride 300 mg once per day, day 53-55): 92 kg
Weight ([1]; first trial, cesium chloride 300 mg once per day, day 56-58): 91 kg
Weight ([1]; first trial, cesium chloride 300 mg once per day, day 59-61): 90 kg
weight lost during the trial ([1]; first trial, cesium chloride 300 mg once per day, subject 100 kg): ten

O=C([O-])c1cc(=O)[nH]c(=O)[nH]1.[Li+] [lithium orotate]
feeling of stimulation (subject report) [1, 4]: not the feeling of stimulation as in the first and fourth trials
stress of trying to diminish junk food intake (subject report) [1, 5]: decreased
weight loss (in words) [1, 6]: Weight loss was recorded

N[C@@H](CC(=O)[O-])C(=O)[O-].[Li+].[Li+] [lithium aspartate]
feeling of stimulation (subject report) [1, 4]: not the feeling of stimulation as in the first and fourth trials
stress of trying to diminish junk food intake (subject report) [1, 5]: decreased
weight loss (in words) [1, 6]: Weight loss was recorded
